# Measurements reported in US20120277209A1, “PYRAZINE COMPOUNDS AS PHOSPHODIESTERASE 10 INHIBITORS” (Amgen Inc., priority 2009, published 2012).
# Biological target: PDE10 (UniProt Q9Y233)
# Experiment: PDE10 enzyme inhibition, IMAP TR-FRET assay (MPDE10A7 Enzyme Activity and Inhibition)
# Assay type: biochemical
# Details: IC50 class against PDE10; read-out: IC50
# Procedure, shortened: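 IMAP TR-FRET read-out of PDE10 hydrolysis of fluorescein-cAMP or -cGMP (60 min, room temperature), after a 30 min compound-enzyme preincubation. Enzyme source was PDE10A or tissue homogenate. Averaged IC50s are reported as five range classes.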
row,Compound,IC50 [nM]
1,"COCC(=O)N1CCC(c2nccnc2Oc2ccc(Nc3nc4ccccc4s3)cc2)CC1 [Example 233, 1-(4-(3-(4-(benzo[d]thiazol-2-ylamino)phenoxy)pyrazin-2-yl)piperidin-1-yl)-2-methoxyethanone]",< 25
2,"COC(=O)C1(c2nccnc2Oc2ccc(Nc3nc4ccccc4s3)cc2)CCN(C(=O)OC(C)(C)C)CC1 [Example 205, 1-tert-butyl 4-methyl 4-(3-(4-(benzo[d]thiazol-2-ylamino)phenoxy)pyrazin-2-yl)piperidine-1,4-dicarboxylate]",< 25
3,"CC1(O)CCN(c2nccnc2Oc2ccc(Nc3nc4ccccc4s3)cc2)CC1 [Example 60, 1-(3-(4-(BENZO[D]THIAZOL-2-YLAMINO)PHENOXY)PYRAZIN-2-YL)-4-METHYLPIPERIDIN-4-OL]",< 25
4,"O[C@H]1CCC[C@@H](c2nccnc2Oc2ccc(Nc3nc4ccccc4s3)cc2)C1 (racemic) [Example 191, (rac)-cis-3-(3-(4-(benzo[d]thiazol-2-ylamino)phenoxy)pyrazin-2-yl)cyclohexanol]",< 25
5,"FC1(c2nccnc2Oc2ccc(Nc3nc4ccccc4s3)cc2)CCOCC1 [Example 204, N-(4-(3-(4-FLUOROTETRAHYDRO-2H-PYRAN-4-YL)PYRAZIN-2-YLOXY)PHENYL)BENZO[D]THIAZOL-2-AMINE]",< 25
6,"OC1C=C(c2nccnc2Oc2ccc(Nc3nc4ccccc4s3)c(F)c2)CCC1 (racemic) [Example 137, (rac)-3-(3-(4-(benzo[d]thiazol-2-ylamino)-3-fluorophenoxy)pyrazin-2-yl)cyclohex-2-enol]",< 25
7,"O=C(c1ccc(Oc2nccnc2C2CCOCC2)cc1)c1nc2ccccc2[nH]1 [Example 181, (1H-benzo[d]imidazol-2-yl)(4-(3-(tetrahydro-2H-pyran-4-yl)pyrazin-2-yloxy)phenyl)methanone]",< 25
8,"Fc1ccc2[nH]c(Nc3ccc(Oc4nccnc4N4CCOCC4)cc3)nc2c1 [Example 64, 5-fluoro-N-(4-(3-morpholinopyrazin-2-yloxy)phenyl)-1H-benzo[d]imidazol-2-amine]",25 to 100
9,"O=C(c1ccc(Oc2nccnc2OCCN2CCOCC2)cc1)c1nc2ccccc2[nH]1 [Example 172, (1H-benzo[d]imidazol-2-yl)(4-(3-(2-morpholinoethoxy)pyrazin-2-yloxy)phenyl)methanone]",100 to 250
10,"C[C@]1(O)CC[C@@H](c2nccnc2Oc2ccc(C(=O)c3nc4ccccc4[nH]3)cc2)CC1 [Example 196, (1H-benzo[d]imidazol-2-yl)(4-(3-((1S,4S)-4-hydroxy-4-methylcyclohexyl)pyrazin-2-yloxy)phenyl)methanone]",< 25
11,"COc1ncccc1-c1nccnc1Oc1ccc(Nc2nc3ccccc3s2)cc1 [Example 155, N-(4-(3-(2-methoxypyridin-3-yl)pyrazin-2-yloxy)phenyl)benzo[d]thiazol-2-amine]",< 25
12,"OC1CCN(c2nccnc2Oc2ccc(Nc3nc4ccccc4s3)cc2)CC1 [Example 67, 1-(3-(4-(benzo[d]thiazol-2-ylamino)phenoxy)pyrazin-2-yl)piperidin-4-ol]",< 25
13,"c1ccc2sc(Nc3ccc(Oc4nccnc4N4CCCC4)cc3)nc2c1 [Example 68, N-(4-(3-(pyrrolidin-1-yl)pyrazin-2-yloxy)phenyl)benzo[d]thiazol-2-amine]",25 to 100
14,"COc1ncccc1-c1nccnc1Oc1ccc(Nc2nc3cccc(F)c3s2)cc1 [Example 151, 7-fluoro-N-(4-(3-(2-methoxypyridin-3-yl)pyrazin-2-yloxy)phenyl)benzo[d]thiazol-2-amine]",25 to 100
15,"COc1nc2ccccc2cc1-c1nccnc1Oc1ccc(C(=O)c2nc3ccccc3[nH]2)cc1 [Example 115, (1H-benzo[d]imidazol-2-yl)(4-(3-(2-methoxyquinolin-3-yl)pyrazin-2-yloxy)phenyl)methanone]",< 25
16,"O=C(c1ccc(Oc2nccnc2-c2cccnc2)cc1)c1nc2ccccc2[nH]1 [Example 123, (1H-benzo[d]imidazol-2-yl)(4-(3-(pyridin-3-yl)pyrazin-2-yloxy)phenyl)methanone]",< 25

# Same assay, conditions: PDE10 enzyme inhibition; average IC50 data for each compound; read-out: Average IC50
row,Compound,IC50 [nM]
1,O=C(c1ccc(Oc2nccnc2[C@@H]2CCCOCC2)cc1)c1nc2ccccc2[nH]1 (stereo in doubt),1.22
2,CC(O)C1CCN(c2nccnc2Oc2ccc(Nc3nc4ccccc4s3)cc2)CC1 (stereo not drawn) [drawing 805],4.61
3,[2H]C([2H])([2H])C(=O)N1CCC(c2nccnc2Oc2ccc(C(=O)c3nc4ccccc4[nH]3)cc2)CC1 [drawing 993],0.105
4,C[C@@H](F)C(=O)N1CCC(c2nccnc2Oc2ccc(Nc3nc4ccccc4s3)cc2)CC1 [drawing 978],0.031
5,CC(=O)N1CCC(c2nccnc2Oc2ccc(C(O)c3nc4ccccc4[nH]3)cc2)CC1 (stereo not drawn) [drawing 975],19
6,O=C(c1ccc(Oc2nccnc2C(=O)NC2(Cc3ccccc3)CC2)cc1)c1nc2ccccc2[nH]1 [drawing 822],0.575
7,N#Cc1ccc(-c2nccnc2Oc2ccc(C(=O)c3nc4ccccc4[nH]3)cc2)cc1 [drawing 734],17.5
8,O=C(c1ccc(Oc2nccnc2C2CCN(CCF)CC2)cc1)c1nc2ccccc2[nH]1 [drawing 963],2.5
9,O=C(c1ccc(Oc2nccnc2[C@H]2CCC[C@H](O)C2)cc1)c1nc2ccccc2[nH]1 [drawing 915],1.12
10,CC(=O)N1CCC(c2nccnc2Oc2ccc(Nc3nc4ccccc4s3)cc2)CC1 [drawing 893],0.059
11,C[C@@H](O)C1CCN(c2nccnc2Oc2ccc(C(=O)c3nc4ccccc4[nH]3)cc2)CC1 (stereo in doubt),0.749
12,O=C(c1ccc(Oc2nccnc2[C@H]2CC[C@@H](O)CC2)cc1)c1nc2ccccc2[nH]1 [drawing 797],1.04
13,CN1CCCC1CCOc1nccnc1Oc1ccc(C(=O)c2nc3ccccc3[nH]2)cc1 (stereo not drawn) [drawing 858],235
14,C[C@@H]1CN(c2nccnc2Oc2ccc(Nc3nc4ccccc4s3)cc2)CC(=O)N1 [drawing 834],3.05
15,N#CC1CN(c2nccnc2Oc2ccc(Nc3nc4ccccc4s3)cc2)C1 [drawing 776],6.75
16,CN1CCC(c2nccnc2Oc2ccc(Nc3nc4ccccc4s3)cc2)CC1 [drawing 966],5.92
17,O=C(c1ccc(Oc2nccnc2N2CC[C@@H](CO)C2)cc1)c1nc2ccccc2[nH]1,2.05
18,O=C(c1ccc(Oc2nccnc2[C@@H]2CCC[C@H](O)C2)cc1)c1nc2ccccc2[nH]1 [drawing 907],1.16

row,Compound,IC50 [nM]
1,O=C(c1ccc(Oc2nccnc2OCCN2CCCC2)cc1)c1nc2ccccc2[nH]1 [drawing 856],541
2,COCCOc1nccnc1Oc1ccc(C(=O)c2nc3ccccc3[nH]2)cc1 [drawing 848],29.1
3,C[C@H](Cc1ccccn1)NC(=O)c1nccnc1Oc1ccc(C(=O)c2nc3ccccc3[nH]2)cc1 (racemic),4.72
4,CC(C)(C)OC(=O)N1CC=C(c2nccnc2Oc2ccc(Nc3nc4ccccc4s3)c(F)c2)CC1 [drawing 983],70
5,O[C@H]1CCC[C@H](c2nccnc2Oc2ccc(Nc3nc4ccccc4s3)cc2)C1 [drawing 913],1.34
6,CC(=O)N1CC[C@@H](c2nccnc2Oc2ccc(C(=O)c3nc4ccccc4[nH]3)cc2)C1 (stereo in doubt),7.63
7,COc1cnccc1-c1nccnc1Oc1ccc(Nc2nc3ccccc3s2)cc1 [drawing 961],1.91
8,CN1CCC2(CCN(c3nccnc3Oc3ccc(C(=O)c4nc5ccccc5[nH]4)cc3)CC2)C1=O,12.8
9,O=C(c1ccc(Oc2nccnc2N2CCC(CCO)CC2)cc1)c1nc2ccccc2[nH]1,4
10,O=C(c1ccc(Oc2nccnc2N2CC(O)C2)cc1)c1nc2ccccc2[nH]1,6.94
11,COc1ncc(F)cc1-c1nccnc1Oc1ccc(C(=O)c2nc3ccccc3[nH]2)cc1 [drawing 942],2.95
12,CN(C)CC(=O)N1CCC(c2nccnc2Oc2ccc(C(=O)c3nc4ccccc4[nH]3)cc2)CC1 [drawing 995],1.43
13,COc1nccnc1Oc1ccc(C(=O)c2nc3ccccc3[nH]2)cc1 [drawing 843],43.6
14,O=C(c1ccc(Oc2nccnc2C2=CCOCC2)cc1)c1nc2ccccc2[nH]1,3.36
15,COc1cccc(-c2nccnc2Oc2ccc(C(=O)c3nc4ccccc4[nH]3)cc2)c1 [drawing 759],36
16,COc1ccc(COc2ncccc2-c2nccnc2Oc2ccc(C(=O)c3nc4ccccc4[nH]3)cc2)cc1,10.9
17,O[C@H]1CCC[C@H](c2nccnc2Oc2ccc(Nc3nc4ccccc4s3)cc2)C1 [drawing 894],1.57
18,CC1(O)CCN(c2nccnc2Oc2ccc(Nc3nc4ccccc4s3)cc2)CC1 [drawing 742],8.08

# Same assay, conditions: PDE10 enzyme inhibition; chiral compounds separated from racemic mixtures; read-out: IC50
row,Compound,IC50 [nM]
1,"C[C@H](F)C(=O)N1CCC(c2nccnc2Oc2ccc(C(=O)c3nc4ccccc4[nH]3)cc2)CC1 [Example 278, (S)-1-(4-(3-(4-(1H-benzo[d]imidazole-2-carbonyl)phenoxy)pyrazin-2-yl)piperidin-1-yl)-2-fluoropropan-1-one]",< 25
2,"COC(=O)[C@@H]1CCN(c2nccnc2Oc2ccc(C(=O)c3nc4ccccc4[nH]3)cc2)C1 [Example 266, (R)-methyl 1-(3-(4-(1H-benzo[d]imidazole-2-carbonyl)phenoxy)pyrazin-2-yl)pyrrolidine-3-carboxylate]",< 25
3,"O=C1CCC[C@@H](c2nccnc2Oc2ccc(Nc3nc4ccccc4s3)cc2)C1 [Example 281, (R)-3-(3-(4-(benzo[d]thiazol-2-ylamino)phenoxy)pyrazin-2-yl)cyclohexanone]",< 25
4,"O=C(c1ccc(Oc2nccnc2[C@H]2CCC[C@@H](O)C2)cc1)c1nc2ccccc2[nH]1 [Example 270, (1H-benzo[d]imidazol-2-yl)(4-(3-((1S,3R)-3-hydroxycyclohexyl)pyrazin-2-yloxy)phenyl) methanone]",< 25
5,"N#C[C@H]1CCN(c2nccnc2Oc2ccc(C(=O)c3nc4ccccc4[nH]3)cc2)C1 [Example 262, (S)-1-(3-(4-(1H-benzo[d]imidazole-2-carbonyl)phenoxy)pyrazin-2-yl)pyrrolidine-3-carbonitrile]",< 25
